In brackets after ≈: the same amount, converted by molar mass. Where two headings read alike, the source gives them in different places.

The nature of one data set: physchem. How it is done: (§1) The container bottoms were then attached to the bottom of a small jewelry ultrasonic cleaner bath using a water-resistant double-stick tape. Just enough water was added to the bath to immerse the weigh boats to about ⅓rd height. Sonication was performed for 15 minutes in steps of 5 minutes. The liquids were transferred to centrifuge tubes and centrifuged twice for 30 min. in a bench top centrifuge to pellet out undissolved dye. The supernatants were transferred to clean tubes and centrifuged again, to remove entrained solids. Suspensions of same amounts of dyes in same amount of distilled water as the amount of the polymer solution were treated in the same fashion, as controls. The resulting solutions were spotted (25 ul) on TLC plates to form circles from the drops. The intensities of the spots were compared with spots made from standards of dye solutions made in ethanol or ethanol/water to determine approximate concentrations; the spots are shown in FIG. 1. The solubilities of the dyes in water were determined by dissolving appropriate amount of the dye in […] deionized water (unbuffered) at room temperature, and adding (i.e. titrating with) further water as necessary to obtain saturated solutions.

The procedure of data set [1]:
as §1

`O=C1OC2(c3cc(Cl)c(O)cc3Oc3cc(O)c(Cl)cc32)c2ccccc21` [Dichlorofluorescein, dichlorofluorescein] displayed a solubility in the data set “physchem” (water, thermodynamic from solid) of 10 µg/mL (≈ 24.9 µM). For the same compound, in data set [1] (15 min), the “concentration of dye in 50 mg/ml polymer” value was “approximately 5 mg/ml”.
Regarding `Cc1ccccc1/N=N/c1ccc(/N=N/c2c(O)ccc3ccccc23)c(C)c1` [Sudan IV], the “concentration (solubility) of dye in H2O” value in “physchem” was found to be 0 µg/mL. Also, the “concentration of dye in 50 mg/ml polymer” value in data set [1] is “approximately 0.2 mg/ml”.

Broadly, the solubility is the concentration that dissolves in the medium under given conditions. A high value points to much dissolved substance.

Source of the values: US8173764B2, “Solubilization and targeted delivery of drugs with self-assembling amphiphilic polymers” (AllExcel Inc., priority 2006, dated 2012).
